Measurements published in patent US20100298282A1, “Treatment of Ocular Conditions and the Side-Effects of Glucocorticoids” (priority 2006, published 2010).
Like-named read-outs stand apart in the source and are kept apart here. Marks after values point to notes of the source that are not given here.

Key:
[1] = target: T1, human recombinant receptor (PR) (Homo sapiens, UniProt P06401); experiment: PR binding, radioligand binding with [3H]-progesterone
T1 sequence (P06401 1-933): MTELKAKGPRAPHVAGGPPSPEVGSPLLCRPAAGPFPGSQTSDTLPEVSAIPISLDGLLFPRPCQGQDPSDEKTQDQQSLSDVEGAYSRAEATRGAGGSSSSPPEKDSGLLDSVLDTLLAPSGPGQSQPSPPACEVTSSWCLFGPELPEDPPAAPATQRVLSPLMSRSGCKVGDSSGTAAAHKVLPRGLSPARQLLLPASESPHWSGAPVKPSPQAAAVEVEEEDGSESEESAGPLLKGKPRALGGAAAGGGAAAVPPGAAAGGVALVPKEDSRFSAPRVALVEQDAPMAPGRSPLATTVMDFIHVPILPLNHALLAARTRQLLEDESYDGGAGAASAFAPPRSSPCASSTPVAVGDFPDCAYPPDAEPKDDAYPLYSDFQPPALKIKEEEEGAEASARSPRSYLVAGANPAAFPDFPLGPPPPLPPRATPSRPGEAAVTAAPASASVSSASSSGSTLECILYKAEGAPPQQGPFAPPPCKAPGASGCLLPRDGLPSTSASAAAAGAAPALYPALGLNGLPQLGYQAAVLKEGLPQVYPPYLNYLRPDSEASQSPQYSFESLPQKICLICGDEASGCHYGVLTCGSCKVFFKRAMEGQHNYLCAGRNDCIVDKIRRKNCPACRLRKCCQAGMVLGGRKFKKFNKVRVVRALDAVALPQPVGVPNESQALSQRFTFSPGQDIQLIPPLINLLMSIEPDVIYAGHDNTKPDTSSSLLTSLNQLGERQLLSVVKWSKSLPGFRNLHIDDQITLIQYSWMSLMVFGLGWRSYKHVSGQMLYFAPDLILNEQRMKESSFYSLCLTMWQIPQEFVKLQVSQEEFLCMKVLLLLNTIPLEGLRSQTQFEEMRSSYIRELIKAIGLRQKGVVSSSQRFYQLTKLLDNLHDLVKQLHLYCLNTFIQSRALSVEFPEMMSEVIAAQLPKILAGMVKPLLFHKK
Description: (§1) The methods are described by Gill et al. and Morgan et al., supra.
PR binding was assessed using the same methods, using the human recombinant receptor and [^3H]-progesterone. IC50 values were determined from six-point concentration/inhibition curves performed in duplicate at semi-log concentrations.

[2] = target: T2, human recombinant receptor (GR) (Homo sapiens, UniProt P04150); experiment: GR binding, glucocorticoid radioligand binding with [3H]-dexamethasone
T2 sequence (P04150 1-777): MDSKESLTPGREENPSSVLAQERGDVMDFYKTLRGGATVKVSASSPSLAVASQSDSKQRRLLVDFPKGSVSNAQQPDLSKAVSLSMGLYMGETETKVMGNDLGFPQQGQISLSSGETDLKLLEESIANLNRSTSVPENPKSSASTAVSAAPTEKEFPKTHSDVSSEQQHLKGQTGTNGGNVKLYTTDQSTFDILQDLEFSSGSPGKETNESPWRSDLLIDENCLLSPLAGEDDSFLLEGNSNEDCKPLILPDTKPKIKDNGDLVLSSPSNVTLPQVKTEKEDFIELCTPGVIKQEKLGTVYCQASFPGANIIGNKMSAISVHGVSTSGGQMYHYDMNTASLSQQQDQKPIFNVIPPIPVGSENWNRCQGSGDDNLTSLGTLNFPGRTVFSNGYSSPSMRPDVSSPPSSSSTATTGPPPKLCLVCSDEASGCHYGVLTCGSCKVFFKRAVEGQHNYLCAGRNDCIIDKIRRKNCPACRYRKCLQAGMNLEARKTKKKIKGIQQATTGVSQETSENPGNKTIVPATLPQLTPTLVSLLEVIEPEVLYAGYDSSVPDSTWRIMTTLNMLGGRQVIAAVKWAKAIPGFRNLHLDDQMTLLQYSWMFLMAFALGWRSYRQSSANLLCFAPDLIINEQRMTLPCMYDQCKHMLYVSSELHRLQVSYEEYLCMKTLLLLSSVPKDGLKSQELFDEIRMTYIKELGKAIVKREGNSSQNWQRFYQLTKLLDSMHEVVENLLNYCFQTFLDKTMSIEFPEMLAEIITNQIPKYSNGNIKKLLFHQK
Excerpt: as §1

[3] = target: T3, native glucocorticoid receptors (Homo sapiens, UniProt P04150); experiment: Glucocorticoid reporter gene assay (GRE-luciferase) in SW1353 cells, GR antagonist activity; type: cell-based; conditions: for IC50: 24 hours, in the presence of 50 nM dexamethasone; for Ki: Ki=IC50/(1+[Dex]/EC50Dex)
T3 construct: cell line that expresses native glucocorticoid receptors; endogenous in cells; host or cells: SW1353 human chondrosarcoma cells, stably transfected only with a GRE-luciferase reporter
T3 sequence (P04150 1-777): T2 sequence (P04150 1-777)
Excerpt: Depending on the intended use and route of administration, various criteria may be used to determine a GR antagonist for use in the invention. […] The GR antagonism preferably negates more than 30%, more preferably more than 50%, and most preferably more than 90%, of the GR agonism at sites distant from the site of administration of the corticosteroid, and negates less than 70%, more preferably less than 50%, and most preferably less than 10%, of the GR agonism at the site of intended action of the corticosteroid.
The glucocorticoid reporter gene assay was performed in SW1353 human chondrosarcoma cell line that expresses native glucocorticoid receptors (Morgan et al., supra), stably transfected with a vector containing a glucocorticoid-responsive element (GRE) linked to the firefly luciferase gene. […] Compounds were tested on two separate occasions to determine inter-assay variability.
Ki values were calculated from the equation
Ki=IC50/(1+[Dex]/EC50^Dex)

[4] = test system: Intraocular pressure (IOP); experiment: Intraocular pressure after a single eye drop in New Zealand White rabbits; type: in vivo; conditions: rabbit; for IOP at 3 hours, Mean (SEM) / IOP at 4 hours, Mean (SEM): 0.3% single eye drop; for decrease in IOP compared to vehicle-treated group: at 3 and 4 hours
Description: Healthy female New Zealand White rabbits were tested in a randomized, blind, controlled study, with 6 animals per treatment group. They were acclimatized for 7 days prior to the start of the study. Intraocular pressure (IOP) was measured in both eyes pre-treatment and at intervals after instillation of a single eye drop of vehicle or test compound into the left eye of each animal, administered from a dropper bottle. The volume of each drop was approximately 60-65 microlitres. The vehicle was a sterile solution of 15% hydroxpropyl-β-cyclodextrin, 5% polyethylene glycol, 0.5% hydroxypropylmethylcellulose in deionised water, adjusted to pH 7 with HCl or NaOH as appropriate. […] IOP was measured using a Mentor Tonopen XL (Lim et al., 2005, Invest Opthalmol Vis Sci 46 2419-23), after topical administration of 0.5% proxymetacaine HCl local anaesthetic. Ten recordings per eye per time point were taken and a mean reading documented.

intraocular pressure = conditions: rabbit, cited from earlier work
rat skin = conditions: given subcutaneously or topically to the skin; cited from earlier work
[5] = target: GR receptors in the iris-ciliary body (Oryctolagus cuniculus, UniProt P59667); conditions: rabbit eye; cited from earlier work
[6] = read-out: GR Antagonist Mean Ki

Chain of GR receptors in the iris-ciliary body (P59667 whole entry): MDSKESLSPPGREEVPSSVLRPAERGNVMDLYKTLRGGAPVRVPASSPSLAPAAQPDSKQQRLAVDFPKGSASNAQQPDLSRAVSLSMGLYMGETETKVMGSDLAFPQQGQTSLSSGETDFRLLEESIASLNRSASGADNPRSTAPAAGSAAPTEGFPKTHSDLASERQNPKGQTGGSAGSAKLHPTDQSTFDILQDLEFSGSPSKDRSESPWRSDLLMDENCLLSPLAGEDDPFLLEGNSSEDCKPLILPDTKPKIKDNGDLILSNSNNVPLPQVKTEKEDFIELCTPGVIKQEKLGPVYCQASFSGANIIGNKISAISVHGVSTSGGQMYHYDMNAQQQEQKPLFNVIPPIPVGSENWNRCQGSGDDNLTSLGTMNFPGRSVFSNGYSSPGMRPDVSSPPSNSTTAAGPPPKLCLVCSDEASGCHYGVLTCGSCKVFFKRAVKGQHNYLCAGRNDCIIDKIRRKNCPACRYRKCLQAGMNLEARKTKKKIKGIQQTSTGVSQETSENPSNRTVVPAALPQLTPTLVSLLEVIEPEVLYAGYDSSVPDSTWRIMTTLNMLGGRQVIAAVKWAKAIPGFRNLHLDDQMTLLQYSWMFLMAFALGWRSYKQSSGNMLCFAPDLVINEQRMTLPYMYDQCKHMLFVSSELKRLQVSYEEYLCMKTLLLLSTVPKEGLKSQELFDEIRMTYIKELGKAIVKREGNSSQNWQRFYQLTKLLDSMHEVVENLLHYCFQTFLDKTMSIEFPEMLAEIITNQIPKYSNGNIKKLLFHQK

| Compound | IC50 [1] | Ki [1] | IC50 [2] | Ki [2] | IC50 [3] | Ki [3, 6] | Ki ([3]; GR Antagonist Mean Ki) | IOP at 3 hours, Mean (SEM) [4] | IOP at 4 hours, Mean (SEM) [4] | decrease in IOP compared to vehicle-treated group [4] | effect on intraocular pressure, topical (intraocular pressure; 1% suspension eyedrops topically, after 4-13 weeks of treatment) | effect on intraocular pressure, subconjunctival injection (intraocular pressure; 1% suspension injected subconjunctivally) | effect on steroid-induced skin atrophy (rat skin) | binding to GR receptors in iris-ciliary body [5] |
| --- | --- | --- | --- | --- | --- | --- | --- | --- | --- | --- | --- | --- | --- | --- |
| CC#C[C@]1(O)CC[C@H]2[C@@H]3CCC4=CC(=O)CCC4=C3[C@@H](c3ccc(NC)cc3)C[C@@]21C [RU42633] | 4.46 nM | 1.79 nM | 1.12 nM | 0.56 nM | 17.3 nM | 2.55 nM | – | – | – | – | – | – | – | – |
| COc1cccc2c1-c1ccc(NS(C)(=O)=O)cc1C(c1cccc(C)c1)O2 (stereo not drawn) [Compound A-362947, N-[1-methoxy-6-(3-methylphenyl)-6H-benzo{c}chromen-8-yl]methanesulfonamide] | 1330 nM | 531 nM | 5.64 nM | 2.82 nM | – | – | 50.4 nM | – | – | – | – | – | – | – |
| CC#C[C@]1(O)CC[C@H]2[C@@H]3CCC4=CC(=O)CCC4=C3[C@@H](c3ccc(N(C)C)cc3)C[C@@]21C [RU486, Mifepristone] | – | – | – | – | – | – | – | 11.67 (1.23) mm Hg | 11.83 (1.19) mm Hg | did not induce a statistically significant decrease in IOP | falls in intraocular pressure have been noted | falls in intraocular pressure were reported | blocked atrophogenic effect of the topical steroid without affecting its anti-inflammatory effect | specifically blocks the binding of the GR agonist triamcinolone |
| CN(C)c1ccc([C@H]2C[C@@]3(C)[C@@H](CC[C@]3(O)C#CCO)[C@@H]3CCC4=CC(=O)CCC4=C32)cc1 [RU42698] | 10.6 nM | 4.24 nM | 1.74 nM | 0.87 nM | 80.9 nM | 12.6 nM | – | 11.83 (0.40) * mm Hg | 11.83 (0.31) * mm Hg | induced a significant decrease | – | – | – | – |
| CC#C[C@]1(O)CC[C@H]2[C@@H]3CCC4=CC(=O)CCC4=C3[C@@H](c3ccc(N)cc3)C[C@@]21C [RU42848] | 15.9 nM | 6.37 nM | 1.36 nM | 0.68 nM | 58.3 nM | 8.6 nM | – | 11.67 (0.49) * mm Hg | 11.50 (0.34) * mm Hg | induced a significant decrease in IOP | – | – | – | – |
